According to patent US10368545B2, “Substituted 2-thioimidazolylcarboxamides as pesticides” (BAYER CROPSCIENCE AKTIENGESELLSCHAFT, priority 2015, dated 2019):
Read-outs that look alike come from different tables or passages of the source.

Legend:
[1] = log P by HPLC on reversed-phase C18 columns (OECD Guideline 117); type: physicochemical; details: for logP[a]: method [a]; for logP[b]: method [b]; for chromatographic logP: reversed-phase C18 HPLC column
Procedure, shortened: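 Reversed-phase C18 HPLC per OECD 117, LC-MS with a linear 10% to 95% acetonitrile gradient. Acidic method at pH 2.7 with 0.1% formic acid; neutral method at pH 7.8 with 0.001 M ammonium hydrogencarbonate.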

[2] = system: green peach aphid (Myzus persicae); assay: Myzus persicae spray test (Chinese cabbage leaf discs); type: in vivo; details: after 5 or 6 days, Chinese cabbage leaf discs
Procedure, shortened: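 Leaf discs bearing all aphid stages are sprayed with compound dissolved in acetone/DMF and diluted with water containing 1000 ppm emulsifier. Efficacy in % is scored after 5 or 6 days: 100% means all aphids killed, 0% none killed.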

[3] = system: green peach aphid (Myzus persicae); assay: Contrasting example: Myzus persicae spray test (MYZUPE); type: in vivo; details: MYZUPE, 100 g ai/ha
Experimental: Myzus persicae—Spray Test (MYZUPE)
Solvents: 78.0 parts by weight of acetone • • 1.5 parts by weight of dimethylformamide
Emulsifier: alkylaryl polyglycol ether
To produce a suitable active compound preparation, 1 part by weight of active compound is dissolved using the stated parts by weight of solvent and made up with water containing an emulsifier concentration of 1000 ppm until the desired concentration is attained. To produce further test concentrations, the preparation is diluted with emulsifier-containing water.
Discs of Chinese cabbage leaves (Brassica pekinensis), infested by all stages of the green peach aphid (Myzus persicae) are sprayed with an active compound preparation of the desired concentration.
After the desired period of time, the efficacy in % is determined. 100% means that all aphids were killed; 0% means that no aphids were killed.

logP[a] [1]	logP[b] [1]	chromatographic logP ([1]; pH 2.7, acidic range, pH 2.7, 0.1% aqueous formic acid / acetonitrile, read-out: log P[a])	chromatographic logP ([1]; pH 7.8, neutral range, pH 7.8, 0.001 molar aqueous ammonium hydrogencarbonate / acetonitrile, read-out: log P[n])	SMILES	efficacy (aphids killed) ([2]; application rate 500 g/ha) [%]	% efficacy ([3]; 6 dat) [%]	% efficacy ([3]; 5 dat) [%]	efficacy (aphids killed) ([2]; application rate 100 g/ha) [%]	pest or weed control at 500 g/ha ([2]; Myzus persicae, foliar, application rate 500 g/ha, read-out: efficacy (aphids killed)) [%]	pest or weed control at 100 g/ha ([3]; Myzus persicae, 144 h, 6 dat, read-out: % efficacy) [%]
1.45	1.52	–	–	CN(C(=O)c1cnc(Sc2ccc(Cl)nc2)n1C)c1cccnc1 [I-A-70]	100	70	–	–	–	–
1.68	1.78	–	–	CN(C(=O)c1cnc(Sc2ccccc2F)n1C)c1cccnc1 [I-A-71]	100	70	–	–	–	–
1.18	1.39	–	–	CN(C(=O)c1cnc(Sc2ccc(F)cn2)n1C)c1cccnc1 [I-A-94]	100	90	–	–	–	–
1.74	1.80	–	–	CN(C(=O)c1cnc([S+]([O-])c2cccc(C(F)(F)F)c2)n1C)c1cccnc1 (centres unmarked) [I-A-96]	100	–	90	–	–	–
1.58	–	–	–	CN(C(=O)c1cnc(Sc2nccc(C(F)(F)F)n2)n1C)c1cccnc1 [I-A-100]	90	90	–	–	–	–
1.00	–	–	–	Cc1ccnc(Sc2ncc(C(=O)N(C)c3cccnc3)n2C)n1 [I-A-101]	100	90	–	–	–	–
1.28	1.43	–	–	Cc1cccc(Sc2ncc(C(=O)N(C)c3cccnc3)n2C)n1 [I-A-108]	100	70	–	–	–	–
0.56	0.85	–	–	CN(C(=O)c1cnc(SCc2ncccn2)n1C)c1cccnc1 [I-A-112]	100	90	–	–	–	–
0.66	0.93	–	–	CN(C(=O)c1cnc(SCc2cnccn2)n1C)c1cccnc1 [I-A-113]	90	90	–	–	–	–
0.16	1.11	–	–	CN(C(=O)c1cnc(SCc2ccncc2)n1C)c1cccnc1 [I-A-116]	100	90	–	–	–	–
0.63	1.16	–	–	CN(C(=O)c1cnc(SCc2ccccn2)n1C)c1cccnc1 [I-A-117]	90	90	–	–	–	–
1.37	1.58	–	–	CN(C(=O)c1cnc(SCc2ccc(Cl)nc2)n1C)c1cccnc1 [I-A-122]	100	90	–	–	–	–
2.47	2.54	–	–	CN(C(=O)c1cnc(SCc2c(Cl)cccc2C(F)(F)F)n1C)c1cccnc1 [I-A-126]	100	70	–	–	–	–
1.41	1.68	–	–	COc1cc(OC)nc(CSc2ncc(C(=O)N(C)c3cccnc3)n2C)n1 [I-A-128]	90	90	–	–	–	–
1.27	1.56	–	–	CN(C(=O)c1cnc(Sc2nc3ccccc3n2C)n1C)c1cccnc1 [I-A-134]	100	–	100	–	–	–
1.41	1.46	–	–	CCn1c(Sc2ncc(C(=O)N(C)c3cccnc3)n2C)nnc1C(F)(F)F [I-A-137]	90	–	90	–	–	–
1.12	1.26	–	–	CN(C(=O)c1cnc(Sc2nnc(C(F)(F)F)n2C)n1C)c1cccnc1 [I-A-138]	100	–	90	–	–	–
1.39	1.84	–	–	CN(C(=O)c1cnc(Sc2ncc(-c3ccccc3)n2C)n1C)c1cccnc1 [I-A-141]	100	–	70	–	–	–

More lines, now with the values behind:

SMILES	logP[a] [1]	logP[b] [1]	chromatographic logP ([1]; pH 2.7, acidic range, pH 2.7, 0.1% aqueous formic acid / acetonitrile, read-out: log P[a])	chromatographic logP ([1]; pH 7.8, neutral range, pH 7.8, 0.001 molar aqueous ammonium hydrogencarbonate / acetonitrile, read-out: log P[n])	efficacy (aphids killed) ([2]; application rate 500 g/ha) [%]	% efficacy ([3]; 6 dat) [%]	% efficacy ([3]; 5 dat) [%]	efficacy (aphids killed) ([2]; application rate 100 g/ha) [%]	pest or weed control at 500 g/ha ([2]; Myzus persicae, foliar, application rate 500 g/ha, read-out: efficacy (aphids killed)) [%]	pest or weed control at 100 g/ha ([3]; Myzus persicae, 144 h, 6 dat, read-out: % efficacy) [%]
CN(C(=O)c1cnc(S(=O)(=O)c2ccc(F)cc2)n1C)c1cccnc1 [I-A-82]	1.53	1.62	–	–	90	90	–	–	–	–
CN(C(=O)c1cnc([S+]([O-])c2ccc(F)cc2)n1C)c1cccnc1 (centres unmarked) [I-A-84]	1.22	1.27	–	–	90	70	–	–	–	–
CN(C(=O)c1cnc([S+]([O-])c2ccccn2)n1C)c1cccnc1 (centres unmarked) [I-A-86]	0.59	0.80	–	–	90	90	–	–	–	–
CN(C(=O)c1cnc([S+]([O-])c2ccccc2)n1C)c1cccnc1 (centres unmarked) [I-A-87]	1.04	1.20	–	–	90	90	–	–	–	–
CN(C(=O)c1cnc([S+]([O-])c2cccc(C(F)(F)F)c2)n1C)c1ccc[n+]([O-])c1 (centres unmarked) [I-A-95]	1.41	1.39	–	–	100	–	90	–	–	–
CN(C(=O)c1cnc([S+]([O-])c2ncccn2)n1C)c1cccnc1 (centres unmarked) [I-A-97]	0.45	0.48	–	–	90	70	–	–	–	–
COc1cc(OC)nc(Sc2ncc(C(=O)N(C)c3cccnc3)n2C)n1 [I-A-102]	1.61	1.79	–	–	100	90	–	–	–	–
Cc1cnc(Sc2ncc(C(=O)N(C)c3cccnc3)n2C)nc1 [I-A-104]	0.97	–	–	–	100	90	–	–	–	–
COc1ccnc(Sc2ncc(C(=O)N(C)c3cccnc3)n2C)n1 [I-A-106]	1.20	–	–	–	100	90	–	–	–	–
CN(C(=O)c1cnc([S+]([O-])Cc2ccccc2)n1C)c1cccnc1 (centres unmarked) [I-A-130]	1.18	–	–	–	90	–	90	–	–	–
Cc1nnc(Sc2ncc(C(=O)N(C)c3cccnc3)n2C)o1 [I-A-135]	0.62	0.89	–	–	100	–	90	–	–	–
CN(C(=O)c1cnc(Sc2nnc(C(F)F)n2C)n1C)c1cccnc1 [I-A-139]	0.87	1.00	–	–	100	–	90	–	–	–
CN(C(=O)c1cnc(Sc2nnc(-c3ccccc3)s2)n1C)c1cccnc1 [I-A-140]	1.92	1.96	–	–	100	–	70	–	–	–
Cc1nc(Sc2ncc(C(=O)N(C)c3cccnc3)n2C)oc1C [I-A-142]	1.31	1.47	–	–	90	–	90	–	–	–
CN(C(=O)c1cnc(Sc2nccn2C)n1C)c1cccnc1 [I-A-144]	–	0.86	–	–	100	–	90	–	–	–
CCn1c(C(=O)N(C)c2cccnc2)cnc1Sc1ncccn1 [I-A-146]	1.11	1.27	–	–	–	–	90	90	–	–
CN(C(=O)c1cn(C)c(Sc2ncccn2)n1)c1cccnc1 [I-B-1]	–	–	0.42	0.83	–	–	–	–	100	90
